Experimental findings from patent US20240358702A1, “CYCLIC UREA KRAS INHIBITORS” (INCYTE CORPORATION, priority 2023, published 2024) are described below.

In one experiment the target is KRAS G12V (Homo sapiens, UniProt P01116, G12V). Description: GDP-GTP exchange assay (bodipy-GDP/GppNHp, SOS1), KRAS G12V. The format is biochemical. As to conditions: KRAS_G12V exchange assay IC50, value for the most potent isomer quoted; for pIC50: read-out: G12V_exchange. Here is the method: (§1) The inhibitor potency of the exemplified compounds was determined in a fluorescence based guanine nucleotide exchange assay, which measures the exchange of bodipy-GDP (fluorescently labeled GDP) for GppNHp (Non-hydrolyzable GTP analog) to generate the active state of KRAS in the presence of SOS1 (guanine nucleotide exchange factor). Inhibitors were serially diluted in DMSO and a volume of 0.1 μL was transferred to the wells of a black low volume 384-well plate. 5 μL/well volume of bodipy-loaded KRAS G12D diluted to […] in assay buffer (25 mM Hepes pH 7.5, 50 mM NaCl, 10 mM mgCl2 and 0.01% Brij-35) was added to the plate and pre-incubated with inhibitor for 4 h at ambient temperature. Appropriate controls (enzyme with no inhibitor or with a G12D inhibitor) were included on the plate. The exchange was initiated by the addition of a 5 μL/well volume containing 1 mM GppNHp and 300 nM SOS1 in assay buffer. The 10 μL/well reaction concentration of the bodipy-loaded KRAS G12D, GppNHp, and SOS1 were 2.5 nM, 500 uM, and 150 nM, respectively. The reaction plates were incubated at ambient temperature for 2 h, a time estimated for complete GDP-GTP exchange in the absence of inhibitor. For the KRAS G12V mutant, similar guanine nucleotide exchange assays were used with 2.5 nM as final concentration for the bodipy loaded KRAS proteins and 3 h incubation after adding GppNHp-SOS1 mixture. A cyclic peptide described to selectively bind G12D mutant (Sakamoto et al., BBRC 484.3 (2017), 605-611) or internal compounds with confirmed binding were used as positive controls in the assay plates. Fluorescence intensities were measured on a PheraStar plate reader instrument (BMG Labtech) with excitation at 485 nm and emission at 520 nm.
(§2) Either GraphPad prism or Genedata Screener SmartFit was used to analyze the data. The IC50 values were derived by fitting the data to a four parameter logistic equation producing a sigmoidal dose-response curve with a variable Hill coefficient.
(§3) The symbol “t” indicates IC50≤100 nM, “††” indicates IC50>100 nM but ≤1 μM; and “†††” indicates IC50 is >1 μM but ≤5 μM, “††††” indicates IC50 is >5 μM but ≤10 μM. “NA” indicates IC50 not available.

For another experiment, the target named is KRAS G12D (Homo sapiens, UniProt P01116, G12D). Description: GDP-GTP exchange assay (bodipy-GDP/GppNHp, SOS1), KRAS G12D. The settings on record: KRAS_G12D exchange assay IC50; 4 h pre-incubation; value for the most potent isomer quoted. Format: biochemical. The procedure: as §1, §2, §3

pIC50: −log10 of the molar value.

Sequence of KRAS G12V (P01116 1-188 isoform P01116-2 G12V): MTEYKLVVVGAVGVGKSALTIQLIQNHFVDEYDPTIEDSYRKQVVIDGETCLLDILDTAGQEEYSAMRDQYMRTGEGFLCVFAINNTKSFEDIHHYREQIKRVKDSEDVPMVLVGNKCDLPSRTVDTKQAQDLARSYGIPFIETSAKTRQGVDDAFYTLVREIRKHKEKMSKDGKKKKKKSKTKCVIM
Sequence of KRAS G12D (P01116 1-188 isoform P01116-2 G12D): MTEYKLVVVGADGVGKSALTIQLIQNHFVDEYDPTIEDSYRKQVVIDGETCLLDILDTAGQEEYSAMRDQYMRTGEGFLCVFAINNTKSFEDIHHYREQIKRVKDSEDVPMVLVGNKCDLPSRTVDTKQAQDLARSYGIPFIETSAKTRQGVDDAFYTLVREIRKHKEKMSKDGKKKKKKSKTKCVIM

On to `Cc1nc2c(F)c(-c3cccc(Cl)c3Cl)c(CCC#N)cc2c2c1cc([C@@H](C)N1CCCN(c3ccc(F)cc3)C1=O)n2[C@H]1[C@H]2CN[C@@H]1C2` [Example 18, 3-(1-((1R,4R,5S)-2-azabicyclo[2.1.1]hexan-5-yl)-7-(2,3-dichlorophenyl)-6-fluoro-2-((R)-1-(3-(4-fluorophenyl)-2-oxotetrahydropyrimidin-1(2H)-yl)ethyl)-4-methyl-1H-pyrrolo[3,2-c]quinolin-8-yl)propanenitrile], for which the G12V_exchange result at KRAS G12V is “†”. Moreover, the G12D_exchange result on KRAS G12D was “†”.

As for `Cc1nc2c(F)c(-c3cccc(Cl)c3Cl)c(CCC#N)cc2c2c1cc([C@@H](C)N1CCCN(c3ccncc3F)C1=O)n2[C@H]1[C@H]2CN[C@@H]1C2` [Example 21, 3-(1-((1R,4R,5S)-2-azabicyclo[2.1.1]hexan-5-yl)-7-(2,3-dichlorophenyl)-6-fluoro-2-((R)-1-(3-(3-fluoropyridin-4-yl)-2-oxotetrahydropyrimidin-1(2H)-yl)ethyl)-4-methyl-1H-pyrrolo[3,2-c]quinolin-8-yl)propanenitrile], the G12V_exchange entry on KRAS G12V was “†”. Further, on KRAS G12D, the G12D_exchange entry is “†”.

For the molecule `Cc1nc2c(F)c(-c3cccc(Cl)c3Cl)c(CCC#N)cc2c2c1cc([C@@H](C)N1CCCN(c3ccnc(N)c3)C1=O)n2[C@H]1[C@H]2CN[C@@H]1C2` [Example 32, 3-(2-((R)-1-(3-(2-aminopyridin-4-yl)-2-oxotetrahydropyrimidin-1(2H)-yl)ethyl)-1-((1R,4R,5S)-2-azabicyclo[2.1.1]hexan-5-yl)-7-(2,3-dichlorophenyl)-6-fluoro-4-methyl-1H-pyrrolo[3,2-c]quinolin-8-yl)propanenitrile], at KRAS G12V, the G12V_exchange result is given as “†”. In addition, the G12D_exchange result at KRAS G12D is “†”.

Regarding `Cc1nc2c(F)c(-c3cccc(Cl)c3Cl)c(CCC#N)cc2c2c1cc([C@@H](C)N1CCCN(c3cncnc3)C1=O)n2[C@H]1[C@H]2CN[C@@H]1C2` [Example 34, 3-(1-((1R,4R,5S)-2-azabicyclo[2.1.1]hexan-5-yl)-7-(2,3-dichlorophenyl)-6-fluoro-4-methyl-2-((R)-1-(2-oxo-3-(pyrimidin-5-yl)tetrahydropyrimidin-1(2H)-yl)ethyl)-1H-pyrrolo[3,2-c]quinolin-8-yl)propanenitrile], the G12V_exchange entry on KRAS G12V is given as “†”. The G12D_exchange entry at KRAS G12D is “†”.

For the molecule `Cc1nc2c(F)c(-c3cccc(Cl)c3Cl)c(CCC#N)cc2c2c1cc([C@@H](C)N1CCCN(c3ccnc(C#N)c3)C1=O)n2[C@H]1[C@H]2CN[C@@H]1C2` [Example 29, 4-(3-((1R)-1-(1-((1R,4R,5S)-2-azabicyclo[2.1.1]hexan-5-yl)-8-(2-cyanoethyl)-7-(2,3-dichlorophenyl)-6-fluoro-4-methyl-1H-pyrrolo[3,2-c]quinolin-2-yl)ethyl)-2-oxotetrahydropyrimidin-1(2H)-yl)picolinonitrile], the pIC50 at KRAS G12V was 6.00 to 7.00. In addition, the G12D_exchange entry at KRAS G12D is “†”.

Take `Cc1nc2c(F)c(-c3cccc(Cl)c3Cl)c(CCC#N)cc2c2c1cc([C@@H](C)N1CCCN(c3ccnc(F)c3)C1=O)n2[C@H]1[C@H]2CN[C@@H]1C2` [Example 27, 3-(1-((1R,4R,5S)-2-azabicyclo[2.1.1]hexan-5-yl)-7-(2,3-dichlorophenyl)-6-fluoro-2-((R)-1-(3-(2-fluoropyridin-4-yl)-2-oxotetrahydropyrimidin-1(2H)-yl)ethyl)-4-methyl-1H-pyrrolo[3,2-c]quinolin-8-yl)propanenitrile]: the G12V_exchange result at KRAS G12V is listed as “†”. Also, at KRAS G12D, the G12D_exchange entry is recorded as “†”.

On to `CC(=O)NCc1cccc(N2CCCN([C@H](C)c3cc4c(C)nc5c(F)c(-c6cccc(Cl)c6Cl)c(CCC#N)cc5c4n3[C@H]3[C@H]4CN[C@@H]3C4)C2=O)c1` [Example 28, N-(3-(3-((1R)-1-(1-((1R,4R,5S)-2-azabicyclo[2.1.1]hexan-5-yl)-8-(2-cyanoethyl)-7-(2,3-dichlorophenyl)-6-fluoro-4-methyl-1H-pyrrolo[3,2-c]quinolin-2-yl)ethyl)-2-oxotetrahydropyrimidin-1(2H)-yl)benzyl)acetamide], for which, on KRAS G12V, the G12V_exchange result was “†”. Moreover, on KRAS G12D, the G12D_exchange entry is “†”.

In the case of `Cc1nc2c(F)c(-c3cccc(Cl)c3Cl)c(CCC#N)cc2c2c1cc([C@@H](C)N1CCCN(c3ccc(F)cn3)C1=O)n2[C@H]1[C@H]2CN[C@@H]1C2` [Example 40, 3-(1-((1R,4R,5S)-2-azabicyclo[2.1.1]hexan-5-yl)-7-(2,3-dichlorophenyl)-6-fluoro-2-((R)-1-(3-(5-fluoropyridin-2-yl)-2-oxotetrahydropyrimidin-1(2H)-yl)ethyl)-4-methyl-1H-pyrrolo[3,2-c]quinolin-8-yl)propanenitrile], on KRAS G12V, the G12V_exchange entry is given as “†”. The G12D_exchange entry at KRAS G12D is “†”.

With `Cc1cc(N2CCCN([C@H](C)c3cc4c(C)nc5c(F)c(-c6cccc(Cl)c6Cl)c(CCC#N)cc5c4n3[C@H]3[C@H]4CN[C@@H]3C4)C2=O)ccn1` [Example 26, 3-(1-((1R,4R,5S)-2-azabicyclo[2.1.1]hexan-5-yl)-7-(2,3-dichlorophenyl)-6-fluoro-4-methyl-2-((R)-1-(3-(2-methylpyridin-4-yl)-2-oxotetrahydropyrimidin-1(2H)-yl)ethyl)-1H-pyrrolo[3,2-c]quinolin-8-yl)propanenitrile], the pIC50 on KRAS G12V was 6.00 to 7.00. In addition, at KRAS G12D, the G12D_exchange result was “†”.

With `Cc1nc2c(F)c(-c3cccc(Cl)c3Cl)c(CCC#N)cc2c2c1cc([C@@H](C)N1CCCN(c3ccnc4sccc34)C1=O)n2[C@H]1[C@H]2CN[C@@H]1C2` (single isomer, unassigned) [Example 8], the G12V_exchange entry on KRAS G12V is listed as “†”. Also, at KRAS G12D, the G12D_exchange entry is given as “†”.

As for `Cc1nc2c(F)c(-c3cccc(Cl)c3Cl)c(CCC#N)cc2c2c1cc([C@@H](C)N1CCCN(c3cncnc3)C1=O)n2[C@H]1[C@H]2CN[C@@H]1C2` (single isomer, unassigned) [Example 10], the G12V_exchange entry on KRAS G12V is “†”. Also, the G12D_exchange result at KRAS G12D is recorded as “†”.

`Cc1nc2c(F)c(-c3cccc(Cl)c3Cl)c(CCC#N)cc2c2c1cc([C@@H](C)N1CCCN(c3cccc(C4(O)COC4)c3)C1=O)n2[C@H]1[C@H]2CN[C@@H]1C2` [Example 24, 3-(1-((1R,4R,5S)-2-azabicyclo[2.1.1]hexan-5-yl)-7-(2,3-dichlorophenyl)-6-fluoro-2-((R)-1-(3-(3-(3-hydroxyoxetan-3-yl)phenyl)-2-oxotetrahydropyrimidin-1(2H)-yl)ethyl)-4-methyl-1H-pyrrolo[3,2-c]quinolin-8-yl)propanenitrile]: the G12V_exchange entry at KRAS G12V is “†”. Besides, at KRAS G12D, the G12D_exchange result is “†”.
